From patent US20220142955A1, “METHODS OF TREATING ORGANIC ACIDEMIAS” (HemoShear Therapeutics, Inc., priority 2019, published 2022)
Read-outs that look alike come from different tables or passages of the source.

System: primary hepatocytes of propionic acidemia patients
Test: Reduction of 13C-propionyl-CoA and accumulation of compound-CoA ester after 13C-isoleucine challenge (Example 1)
Assay type: cell-based
Conditions: Homo sapiens, Hepatocyte, 13C-labeled isoleucine, compound 0 μM to 1,000 μM
Experimental: Primary hepatocytes are isolated from explanted livers of propionic acidemia patients and are cultured on day 1 using standard protocols (see: Chapman et al. “Recapitulation of metabolic defects in a model of propionic acidemia using patient-derived primary hepatocytes” Mol. Genet. Metab. 2016, 117(3), 355-362). Approximately 2×10^5 hepatocytes are plated into each well of a collagen-coated 48-well tissue culture plate and pre-conditioned in a custom Modified Corning culture media for Hepatocells (Corning) without low levels of branched chain amino acids for 72 hours. On day 4, hepatocytes are treated with increasing doses of compound (0, 1, 3, 10, 30, 100, 300, 1000 μM) for 30 min. After 30 min the cells are challenged with ^13C-isoleucine (3 mM). At the end of the challenge period, cells are lysed in 100 μL of […] acetonitrile (MeCN) and 0.1% trifluoroacetic acid (TFA) containing 100 μM of ethymalonyl-CoA as an internal standard. Cells are removed from the well by scraping into the lysis buffer. The collected cellular samples are then dispensed into a microfuge tube. The plate wells are washed again with lysis buffer to ensure the remaining cells are dislocated from the well. All remaining collected cells are then moved into the centrifuge tube. The cellular samples are flash frozen in liquid nitrogen and stored at −80° C. To begin processing, the frozen cellular lysates are thawed on ice and vortexed. The samples are centrifuged at 20,000 g for 10 min at 4° C. and the total volume of supernatant is transferred to a no-bind 96-well plate on ice. The samples are dried under vacuum for about 2 hours and then resuspended in 150 μL of water in each well. Total volumes of samples are filtered through a prepared Durapore filter plate into a no-bind 96-well plate. The filtered samples are stored at −80° C. for HTMS/MS analysis.

CCC(C)(C)C(=O)O [Compound 5, 2,2-dimethybutanoic acid]
EC50 (read-out: concentration of 12C-Compound-CoA ester EC50): 950 nM
EC50 (read-out: concentration of 13C-propionyl-CoA EC50): 430 nM
